Key:
Format in all cases: in vivo
[1] = test system: Rhipicephalus microplus; assay: Rhipicephalus (Boophilus) microplus injection test (BOOPMI Inj); details: 168 h, injection into adult engorged female ticks, egg deposition after 7 days, read-out: activity (efficacy: 100% means all eggs are infertile); for pest or weed control at 0.004 mg: application rate 4 μg/tick; for pest or weed control at 0.02 mg: application rate 20 μg/tick
Summary of the method: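 Compound in DMSO, 1 μL, injected abdominally into five adult engorged females, which were then held in a climate chamber. Read-out is egg fertility, scored from deposition at 7 days, with unclear eggs followed to hatching (~42 days); 0% means all eggs fertile, 100% all infertile.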

[2] = test system: Ctenocephalides felis; assay: Ctenocephalides felis in-vitro contact test, adult cat flea (CTECFE Cont); details: application rate 5 μg/cm^2 (=500 g/ha), adult cat fleas, after 48 hours, read-out: activity (efficacy: 100% means all fleas are dead or moribund)
Summary of the method: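 Efficacy, as percent of fleas dead or moribund, was scored 48 h after adults (5-10 per tube) were placed in glass tubes whose walls carried dried compound at 5 μg/cm^2 (900 ppm solution). Moribund meant failing to climb away from a 45-50° C. hot plate within 5 min.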

[3] = test system: Spodoptera frugiperda; assay: Spodoptera frugiperda spray test; details: in Zea mays, 168 h, read-out: activity (mortality)
Summary of the method: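 Percent kill of fall armyworm caterpillars was assessed 7 days after infesting dried, treated maize leaf sections. Treatment was a spray of compound in acetone/dimethylformamide, diluted with water containing emulsifier at 1000 ppm.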

[4] = test system: Nezara viridula; assay: Nezara viridula spray test; details: in Hordeum vulgare, 96 h, barley plants, larvae, after 4 days; for mortality at 100 g/ha: application rate 100 g/ha; for mortality at 500 g/ha: application rate 500 g/ha
Summary of the method: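 Mortality was read at day 4 (0% = no kill, 100% = total kill) after spraying larva-infested barley plants. Test solutions were made from an acetone/DMF concentrate diluted with water holding 1000 ppm alkylarylpolyglycol ether emulsifier.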

[5] = test system: Rhipicephalus microplus; assay: Rhipicephalus (Boophilus) microplus in-vitro contact test, larval cattle tick, strain Parkhurst (BOOPMI Cont); details: application rate 5 μg/cm^2 (=500 g/ha), tick larvae, after 48 hours, read-out: activity (efficacy: 100% means all larvae are dead or moribund)
Summary of the method: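 After 48 h at 27° C. and 85% humidity, percent dead or moribund larvae was scored from negative geotactic behaviour. Larvae (20-50, Parkhurst strain, synthetic pyrethroid-resistant) were exposed in tubes coated with compound from acetone, 900 ppm corresponding to 5 μg/cm^2.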

[6] = test system: Diabrotica balteata; assay: Diabrotica balteata spray test; details: 168 h, wheat seeds, larvae, after 7 days, read-out: activity (efficacy: 100% means all seedlings have grown up like in the untreated, uninfected control); for pest or weed control at 32 µg/disc, 100 g/ha: application rate 100 g/ha (=32 μg/well); for pest or weed control at 160 µg/disc, 500 g/ha: application rate 500 g/ha (=160 μg/well)
Summary of the method: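 Efficacy (%) was scored 7 days after spraying, with 100% meaning growth like the untreated, uninfected control and 0% meaning no seedling grew. Spray solutions of compound in acetone/DMF with emulsifier-containing water went onto 1-day-germinated wheat seeds, and each unit was then infested with 10-20 banded cucumber beetle larvae.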

[7] = test system: Musca domestica strain WHO—N; assay: Musca domestica test (MUSCDO surface treatment & contact assay); details: exposure 30 minutes, 24 hours after contact, read-out: efficacy (mortality); for mortality at 4 mg/m2: surface concentration 4 mg/m^2, glazed tile; for mortality at 20 mg/m2: surface concentration 20 mg/m^2, glazed tile
Summary of the method: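 Compound dissolved in acetone (2 mg/ml) with 2000 ppm rapeseed oil methyl ester and pipetted onto glazed tile; after acetone evaporation, adult flies exposed to dried surface for 30 minutes. Mortality (%) scored 24 hours after contact.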

SMILES	pest or weed control at 0.004 mg [1] [%]	pest or weed control at 0.02 mg [1] [%]	pest or weed control at 5 µg/cm2 [2] [%]	mortality at 100 g/ha [3] [%]	mortality at 500 g/ha [3] [%]	mortality at 100 g/ha [4] [%]	mortality at 500 g/ha [4] [%]	pest or weed control at 5 µg/cm2 [5] [%]	pest or weed control at 32 µg/disc, 100 g/ha [6] [%]	pest or weed control at 160 µg/disc, 500 g/ha [6] [%]	mortality at 4 mg/m2 [7] [%]	mortality at 20 mg/m2 [7] [%]
Cc1nc([C@H](C)NC(=O)c2cc(Br)cc(C(F)(F)F)c2)n(-c2ccc(C#N)cn2)n1 [II-32]	80	100	100	100	100	100	100	100	100	100	80 to 100	80 to 100
C[C@H](NC(=O)c1cc(C(F)(F)F)cc(C(F)(F)F)c1)c1ncnn1-c1ncc(Cl)s1 [II-40]	100	100	100	100	100	100	100	100	100	100	–	80 to 100
Cc1nc([C@H](C)NC(=O)c2cc(Br)cc(OC(F)(F)F)c2)n(-c2ccc(C#N)cn2)n1 [II-47]	100	100	100	100	–	100	100	100	100	–	80 to 100	80 to 100
Cc1nc([C@H](C)NC(=O)c2cc(C#N)cc(C(F)(F)F)c2)n(-c2ccc(C#N)cn2)n1 [II-53]	100	100	100	100	–	90	–	100	100	–	80 to 100	80 to 100
Cc1nc([C@H](C)NC(=O)c2cc(Cl)cc(C#N)c2)n(-c2ccc(C#N)cn2)n1 [II-61]	100	100	100	100	–	100	–	100	100	–	80 to 100	80 to 100
Cc1nc([C@H](C)NC(=O)c2cc(Cl)nc(C(F)(F)F)c2)n(-c2ccc(C#N)cn2)n1 [II-62]	100	100	100	100	–	100	–	100	100	–	80 to 100	80 to 100
Cc1nc([C@H](C)NC(=O)c2cc(Cl)cc(C(F)F)c2)n(-c2ccc(C#N)cn2)n1 [II-65]	100	100	100	100	–	100	–	100	80	–	80 to 100	80 to 100
C[C@H](NC(=O)c1cc(OC(F)F)cc(OC(F)F)c1)c1ncnn1-c1ccc(C#N)cn1 [II-77]	80	–	100	100	–	100	–	90	100	–	80 to 100	80 to 100
C[C@H](NC(=O)c1cc(C(F)(F)F)cc(C(F)(F)F)c1)c1ncnn1-c1ccc(C(N)=O)cn1 [II-81]	100	–	100	100	–	100	–	100	80	–	–	80 to 100
CCN(C)C(=O)c1ccc(-n2nc(C)nc2[C@H](C)NC(=O)c2cc(C(F)(F)F)cc(C(F)(F)F)c2)nc1 [II-97]	100	–	100	100	–	100	–	100	100	–	80 to 100	80 to 100
C[C@H](NC(=O)c1cc(C(F)F)cc(C(F)F)c1)c1ncnn1-c1ccc(C#N)cn1 [II-101]	100	–	100	100	–	100	–	100	100	–	80 to 100	80 to 100
C[C@H](NC(=O)c1cc(OC(F)(F)F)cc(C(F)F)c1)c1ncnn1-c1ccc(C#N)cn1 [II-111]	100	–	100	100	–	100	–	100	100	–	–	80 to 100
C[C@H](NC(=O)c1cc(OC(F)F)cc(C(F)F)c1)c1ncnn1-c1ccc(C#N)cn1 [II-116]	100	–	100	100	–	100	–	100	100	–	80 to 100	80 to 100
Cc1nc([C@H](C)NC(=O)c2cc(OC(F)(F)F)cc(C(F)F)c2)n(-c2ccc(C#N)cn2)n1 [II-117]	100	–	100	100	–	100	–	100	100	–	80 to 100	80 to 100

Reference: patent US20220274947A1, “NOVEL HETEROARYL-TRIAZOLE COMPOUNDS AS PESTICIDES” (Bayer Aktiengesellschaft, priority 2019, published 2022)
